Laboratory results published in patent US20070166547A1, “Use of a layer consisting of hydrophobic linear, or two-dimensional polycyclic aromatics as a barrier layer or an encapsulation and electric components constructed with a layer of this type and comprising organic polymers” (priority 2003, published 2007).

What was measured:
[1] = system: adenosine-sensitive receptors of thrombocytes; assay: ADP-induced aggregation of thrombocytes in vitro (Born method); type: cell-based, rabbit; settings: 3 min incubation, ADP 10^−5 M
Description: The compounds according to the invention were studied for the effect of aggregation of thrombocytes induced by a preliminary introduction of a solution of an aggregation inductor with a competing introduction of the compounds according to the invention.
The aggregation of thrombocytes was studied by the Born method based on determination of the changes in the optical density of plasma enriched with thrombocytes after its incubation with an aggregation inductor.
Adenozinediphosphoric acid (ADP) was selected as an aggregation inductor, which in fact is an aggregation generator. Use was made of a sample (registration number 885) of the Sigma Diagnostics Company (USA) in final concentration of 10^−5 M.
The experiments were carried out on male rabbits of the “Chinchilla” breed having a mass of 2.7±0.3 kg. 18-24 hours prior to the experiment they were deprived of feed while preserving free access to water.
To obtain plasma enriched with thrombocytes, blood was taken from a cut of a marginal vein of the rabbit ear, the sample was stabilized with 3.8% of sodium citrate solution in a ratio of 9:1 and centrifuged at 200 g (1000 rev/min) for 10 minutes. The top supernatant layer enriched with thrombocytes was transferred by an automatic dropper into a silicone test tube and kept at 37° C. The plasma enriched with thrombocytes contained, on the average, […]. If this content exceeded the specified 3×10^8 blood platelets in 1 liter, this sample was diluted to the necessary concentration with plasma deprived of thrombocytes, which was obtained by centrifuging blood at 650 g during 10 minutes.
The measurements of the optical density of the samples were made on two-channel aggregometer of the “Chronolog” Company (USA). A flask containing 490 mkl of plasma rich with thrombocytes was placed in a device, into which a magnetic agitator covered with Teflon was lowered. The index of maximum amplitude of aggregation (MA) in percent of a fall of the plasma optical density under effect of the aggregation inductor was recorded. The control index MA of plasma was compared with the MA of plasma incubated for 3 minutes with different concentrations of the compounds: from 10^−3 to 10^−7 in vitro experiments or with plasma obtained 15, 30, 60 and 120 minutes after intravenous administration of different doses of the compounds in vivo experiments.
The process of aggregation of thrombocytes was recorded with the help of a computer; on the monitor screen the there were depicted curves reflecting changes of the optical density of the plasma enriched which was taken as a standard 100% compared to the optical density of the non-thrombocyte plasma taken for 0% content of thrombocytes.
Under in vitro conditions a flask was filled with blood plasma enriched with thrombocytes, to which an aggregation inductor ADP was added at a concentration of 10^−5 M, incubated for 3 minutes, and then the compounds according to the invention were introduced directly into the flask. Their action by aggregation of thrombocytes was studied after 3-minute incubation in a wide range of concentrations from 10^−3 to 10^−7 M to minimum concentration of 10^−7 M not inducing no effect of suppressing the aggregation.

[2] = system: plasma hemostasis; assay: Partial activated thromboplastin time (PATT) after intravenous administration; type: in vivo, rabbit; settings: for effect on the PATT (overall): doses 15.0, 30.0, 60.0 mg/kg
Description: The investigations were performed on 72 rabbits of the “Chinchilla” breed with a mass of 2.5±0.3 kg, who were administered which solutions of compounds 2, 15, 21, 37 in doses of 15, 30 and 60 mg/kg intravenously. The experiments included the thrombin-test (series No. 7300) and the coagulability-test (series No. 5000) purchased from the scientific-and-production association (SPA) “Renam”, thromboplastin (series No. 240600) and calcium chloride purchased from the SPA “MedioLab”
The static parameters of the blood and plasma coagulation (partial activated thromboplastin time, thrombin time, maximum coagulation activity (test for auto coagulation) were determined using the Behnk Electronic coagulometer (Germany). The operating principle of this instrument is based on the fact that the formed blood clot breaks the contacts of the pulse counter in the flask-pin circuit, said pin permanently oscillating in a vertical plane. The moment of formation of the clot is registered by stopping the stop watch hand.
The measurements were effected at a constant temperature of 37° C. maintained by a temperature control unit.
Compounds 2, 15, 21, 37 according to the invention at a concentration of 15, 30 and 60 mg/kg were introduced to the above experimental animals intravenously, and their blood samples were taken off 15, 30, 60 and 120 minutes after the administration.
The blood plasma samples deprived of thrombocytes obtained as described above in an amount of 0.1 ml were put in a coagulometer flask and heated for 1 minute at 37° C., then 0.1 ml of 0.277% solution of calcium chloride was added and the blood clotting time was registered. The coagulation time T in seconds of the control plasma and plasma obtained after intravenous administration after 15, 30, 60 and 120 minutes were compared.

[3] = system: indicator enzymes in blood plasma; assay: Morphine abstinence model: indicator enzymes AST, ALT, γ-GTP in blood plasma; type: in vivo, rats Wistar; settings: for ALT, Ci, mE/l, Control + compound / AST, Ci, mE/l, Control + compound / γ-GTP, Ci, mE/l, Control + compound: compound alone 20.0 mg/kg intramuscularly; for ALT, Ci, mE/l, control + Morphine + Compound / AST, Ci, mE/l, control + Morphine + Compound / γ-GTP, Ci, mE/l, control + Morphine + Compound: morphinized rats then compound 20.0 mg/kg intramuscularly
Description: The experiments were carried out on rats in series of 7 animals on each compound according to the invention. Non-morphinized animal with not administered with compounds according to the invention were used as a control group. […] Then the rats were decapitated, the blood from somnolent arteries was collected in test tubes with solution EDTA as an anticoagulant, centrifuged at 1500 g for 15 minutes at 4° C.
To estimate possible hepatoprotective action of the compounds according to the invention under conditions of development of an oxidizing stress in the liver cells, effect of these compounds on the most important biochemical blood indexes, in particular, on the content in blood plasma of indicator enzyme of aspartateaminotransferase (AST), alanineaminotransferase (ALT), γ-glutamiletranspeptidase (γ-GTP) was investigated. The content of enzymes was estimated by their catalyzing activity in blood plasma.
The activity of AST, ALT and γ-GTP was determined by means of diagnostic sets DiaSys, Germany.

[4] = system: thymus; assay: Morphine abstinence model: thymus condition; type: in vivo, rats; settings: morphinized rats then compound
Description: The effect of the compounds according to the invention on the condition of the thymus of the rats was also investigated: a control group, an experimental group of morphinized animals and an experimental group of animals were first morphinized and then injected with the compounds according to the invention. The experiment was carried out similarly to that described above.

[5] = system: thymus; assay: Morphine abstinence model: thymus condition; type: in vivo, rats; settings: compound alone

Row | MA - fall of optical density of plasma, % to the standard ([1]; 10^−3 M) | MA - fall of optical density of plasma, % to the standard ([1]; 10^−4 M) | MA - fall of optical density of plasma, % to the standard ([1]; 10^−5 M) | MA - drop of optical density, % compared to control ([1]; 10^−6 M) | MA - drop of optical density, % compared to control ([1]; 10^−7 M) | Structure (SMILES) | T, s after 15 minutes (PATT) ([2]; dose 15.0 mg/kg intravenously) | T, s after 30 minutes (PATT) ([2]; dose 15.0 mg/kg intravenously) | T, s after 60 minutes (PATT) ([2]; dose 15.0 mg/kg intravenously) | T, s after 120 minutes (PATT) ([2]; dose 15.0 mg/kg intravenously) | T, s after 15 minutes (PATT) ([2]; dose 30.0 mg/kg intravenously) | T, s after 30 minutes (PATT) ([2]; dose 30.0 mg/kg intravenously) | T, s after 60 minutes (PATT) ([2]; dose 30.0 mg/kg intravenously) | T, s after 120 minutes (PATT) ([2]; dose 30.0 mg/kg intravenously) | T, s after 15 minutes (PATT) ([2]; dose 60.0 mg/kg intravenously) | T, s after 30 minutes (PATT) ([2]; dose 60.0 mg/kg intravenously) | T, s after 60 minutes (PATT) ([2]; dose 60.0 mg/kg intravenously) | T, s after 120 minutes (PATT) ([2]; dose 60.0 mg/kg intravenously) | effect on the PATT (overall) [2] | ALT, Ci, mE/l, Control + compound [3] | AST, Ci, mE/l, Control + compound [3] | other results
1 | 45.8 ± 2.3 % | 46.9 ± 2.4 % | 40.1 ± 2.0 % | 49.3 ± 2.6% | 49.7 ± 1.8% | Nc1ncc2c(=O)[nH][nH]c(=O)c2n1 [Compound 36, 2-amino-pyrimido[4,5-d]-6H-pyridazine-5,8-dione] | – | – | – | – | – | – | – | – | – | – | – | – | – | – | – | –
2 | 47.1 ± 3.0 % | 49.2 ± 2.1 % | 41.8 ± 2.4 % | 49.6 ± 1.7% | 49.7 ± 2.1% | Nc1cnc2c(=O)n([C@@H]3O[C@H](CO)[C@@H](O)[C@H]3O)[nH]c(=O)c2n1.[Na] [Compound 21, sodium salt of 3-amino-7-(β-D-ribofuranosile)pyrazine[2,3-d]-6H-pyridazine-5,8-dione] | 37.1 ± 0.1 s | 37.2 ± 0.1 s | 36.9 ± 0.1 s | 37.0 ± 0.2 s | 32.8 ± 0.4 s | 32.0 ± 0.1 s | 32.2 ± 0.1 s | 32.1 ± 0.1 s | 32.0 ± 0.4 s | 32.1 ± 0.2 s | 32.0 ± 0.1 s | 32.3 ± 0.2 s | do not affect the PATT | – | – | –
3 | 51.4 ± 2.7 % | 50.4 ± 1.7 % | 48.2 ± 1.0 % | 50.1 ± 2.0% | 50.8 ± 2.2% | Nc1ccnc2c(=O)n([C@@H]3O[C@H](CO)[C@@H](O)[C@H]3O)[nH]c(=O)c12 [Compound 2, 4-amino-7-(β-D-ribofuranosile)pyrido[2,3-d]-6H-pyridazine-5,8-dione] | 37.0 ± 0.1 s | 37.0 ± 0.2 s | 36.9 ± 0.1 s | 37.0 ± 0.3 s | 32.7 ± 0.5 s | 32.0 ± 0.1 s | 32.2 ± 0.1 s | 32.1 ± 0.2 s | 32.3 ± 0.2 s | 32.4 ± 0.1 s | 32.3 ± 0.1 s | 32.4 ± 0.1 s | do not affect the PATT | – | – | –

Row | Structure (SMILES) | MA - fall of optical density of plasma, % to the standard ([1]; 10^−3 M) | MA - fall of optical density of plasma, % to the standard ([1]; 10^−4 M) | MA - fall of optical density of plasma, % to the standard ([1]; 10^−5 M) | MA - drop of optical density, % compared to control ([1]; 10^−6 M) | MA - drop of optical density, % compared to control ([1]; 10^−7 M) | T, s after 15 minutes (PATT) ([2]; dose 15.0 mg/kg intravenously) | T, s after 30 minutes (PATT) ([2]; dose 15.0 mg/kg intravenously) | T, s after 60 minutes (PATT) ([2]; dose 15.0 mg/kg intravenously) | T, s after 120 minutes (PATT) ([2]; dose 15.0 mg/kg intravenously) | T, s after 15 minutes (PATT) ([2]; dose 30.0 mg/kg intravenously) | T, s after 30 minutes (PATT) ([2]; dose 30.0 mg/kg intravenously) | T, s after 60 minutes (PATT) ([2]; dose 30.0 mg/kg intravenously) | T, s after 120 minutes (PATT) ([2]; dose 30.0 mg/kg intravenously) | T, s after 15 minutes (PATT) ([2]; dose 60.0 mg/kg intravenously) | T, s after 30 minutes (PATT) ([2]; dose 60.0 mg/kg intravenously) | T, s after 60 minutes (PATT) ([2]; dose 60.0 mg/kg intravenously) | T, s after 120 minutes (PATT) ([2]; dose 60.0 mg/kg intravenously) | effect on the PATT (overall) [2] | ALT, Ci, mE/l, Control + compound [3] | AST, Ci, mE/l, Control + compound [3] | other results
4 | Nc1cccc2c(=O)[nH][nH]c(=O)c12.[Na] [Compound 15, sodium salt of 5-amino-benzo[d]-3H-pyridazine-1,4-dione] | 44.8 ± 2.8 % | 46.3 ± 1.7 % | 39.8 ± 3.1 % | 47.3 ± 1.8 % | 49.3 ± 1.4% | 37.0 ± 0.1 s | 37.0 ± 0.2 s | 36.9 ± 0.1 s | 37.0 ± 0.3 s | 32.9 ± 0.8 s | 32.1 ± 0.1 s | 32.0 ± 0.2 s | 32.0 ± 0.1 s | 32.2 ± 0.1 s | 32.2 ± 0.1 s | 32.1 ± 0.2 s | 32.2 ± 0.1 s | do not affect the PATT | 113.48 ± 2.39 mE/l | 173.46 ± 5.63 mE/l | γ-GTP, Ci, mE/l, Control + compound [3]: 7.03 ± 2.82 mE/l; ALT, Ci, mE/l, control + Morphine + Compound [3]: 121.08 ± 5.04 mE/l; AST, Ci, mE/l, control + Morphine + Compound [3]: 195.57 ± 18.68 mE/l; γ-GTP, Ci, mE/l, control + Morphine + Compound [3]: 10.69 ± 1.84 mE/l; Nitrites, thymus Supernatant, Administration of morphine and compound [4]: 0.383 ± 0.02 nmol/mg of protein; Thymus mass, Administration of morphine and compound [4]: 214 ± 12 mg; Nitrites, thymus Supernatant, Administration of compounds [5]: 0.407 ± 0.02 nmol/mg of protein; Thymus mass, Administration of compounds [5]: 298 ± 25 mg
5 | O=c1[nH][nH]c(=O)c2nccnc12.[Li] [Compound 25, lithium salt of pyrazine[2,3-d]-6H-pyridazine-5,8-dione] | 48.2 ± 2.9 % | 48.6 ± 2.0 % | 43.4 ± 3.2 % | 50.3 ± 2.1% | 50.1 ± 3.0% | – | – | – | – | – | – | – | – | – | – | – | – | – | 115.27 ± 1.09 mE/l | 177.34 ± 6.13 mE/l | γ-GTP, Ci, mE/l, Control + compound [3]: 7.57 ± 1.93 mE/l; ALT, Ci, mE/l, control + Morphine + Compound [3]: 121.96 ± 3.4 mE/l; AST, Ci, mE/l, control + Morphine + Compound [3]: 196.46 ± 15.34 mE/l; γ-GTP, Ci, mE/l, control + Morphine + Compound [3]: 11.37 ± 1.54 mE/l; Nitrites, thymus Supernatant, Administration of morphine and compound [4]: 0.396 ± 0.02 nmol/mg of protein; Thymus mass, Administration of morphine and compound [4]: 218 ± 17 mg; Nitrites, thymus Supernatant, Administration of compounds [5]: 0.417 ± 0.02 nmol/mg of protein; Thymus mass, Administration of compounds [5]: 254 ± 14 mg
